The target in experiment [1] is T1, Orexin/Hypocretin receptor type 1 (Homo sapiens, UniProt O43613).
T1 sequence (O43613 whole entry): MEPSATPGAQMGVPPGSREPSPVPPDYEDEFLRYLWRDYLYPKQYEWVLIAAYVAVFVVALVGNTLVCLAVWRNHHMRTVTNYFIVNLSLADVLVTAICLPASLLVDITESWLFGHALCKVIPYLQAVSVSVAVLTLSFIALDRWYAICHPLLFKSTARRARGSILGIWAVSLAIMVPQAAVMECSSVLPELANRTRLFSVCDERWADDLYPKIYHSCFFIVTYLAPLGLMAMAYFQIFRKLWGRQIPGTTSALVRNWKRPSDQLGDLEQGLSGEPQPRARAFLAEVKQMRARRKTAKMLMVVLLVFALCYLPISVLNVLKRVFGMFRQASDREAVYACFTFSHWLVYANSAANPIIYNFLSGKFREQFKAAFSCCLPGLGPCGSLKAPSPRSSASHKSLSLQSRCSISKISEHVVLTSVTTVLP
The experiment can be described thus: (§1) Radioligand Binding Assay I : For crude cell membrane preparations, cells (CHO, Chinese hamster ovary or HEK, human embryonic kidney) expressing human orexin 1 or human orexin 2 receptors, were washed with HEPES (10 mM, pH 7.5), scraped off the culture plates with the same buffer, and centrifuged at 4 C for 5 min at 2500 x g. The cell pellet was either stored at -80 C or used directly. Before the experiments, cell membranes were re-suspended in binding assay buffer (10 mM HEPES, 0.5% (w/v) bovine serum albumin, pH 7.5) by homogenisation with a Polytron homogeniser at 50 Hz for 20 s. In competition experiments, cell homogenates (150μΙ) were incubated in assay buffer (10 mM HEPES, pH 7.5, 0.5 % (w/v) bovine serum albumin, 5 mM MgCI2, 1 mMCaCI2, and tween 0.05%) for 1 h at room temperature with about 100 pM of the radioligand ([125l]orexin A, 2100 Ci/mmole, 50 μΙ), and with various concentrations of compounds of the invention (50 μΙ) in triplicates.

The target in experiment [2] is T2, Orexin receptor type 2 (Homo sapiens, UniProt O43614).
T2 sequence (O43614 whole entry): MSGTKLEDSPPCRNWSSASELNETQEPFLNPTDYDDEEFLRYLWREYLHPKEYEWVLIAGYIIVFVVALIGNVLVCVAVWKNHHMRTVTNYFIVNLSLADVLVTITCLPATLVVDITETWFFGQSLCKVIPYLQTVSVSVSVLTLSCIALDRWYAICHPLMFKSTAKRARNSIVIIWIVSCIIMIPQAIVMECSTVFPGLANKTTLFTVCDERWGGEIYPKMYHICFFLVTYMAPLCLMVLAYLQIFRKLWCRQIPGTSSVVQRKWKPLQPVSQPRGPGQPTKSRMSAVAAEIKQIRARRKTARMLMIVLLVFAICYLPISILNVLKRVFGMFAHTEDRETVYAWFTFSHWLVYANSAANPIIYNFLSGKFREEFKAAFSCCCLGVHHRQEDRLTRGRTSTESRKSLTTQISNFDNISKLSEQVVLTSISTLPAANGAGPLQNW
The experiment is described as §1.

As to `C[C@H](NC(=O)COc1cc(C(F)(F)F)c2c(-c3cccc(Cl)c3)nn(C)c2n1)c1ccccc1`, the Kd stood at 114 nM in experiment [1] and 477 nM in experiment [2].

The term Kd denotes the free concentration of one partner at which half of the binding sites on the other are occupied at equilibrium, for simple one-to-one binding. Lower therefore signals tighter binding.

Source of the values: ChEMBL document CHEMBL3638641, “Disubstituted heteroaryl-fused pyridines” (2014).
